Experimental data reported in patent US4668663A, “Renin inhibitors containing homophe^8” (Merck & Co., Inc., priority 1984, dated 1987).
Numbered stars: 1 amine (or outer) side, 2 acyl side, 3 side chain; on linkers, the order of the positions; unused ones are H or OH. Square brackets hold non-standard residues; d marks the D form. Peptide text beside a SMILES is read from it. * marks the point of attachment. ACHPA = O=C(C[C@H](O)[C@H](CC1CCCCC1)N[*:1])[*:2]; Sta = CC(C)C[C@H](N)[C@@H](O)CC(=O)O; hhPhe = N[C@@H](CCCc1ccccc1)C(=O)O; hPhe = N[C@@H](CCc1ccccc1)C(=O)O; Isovaleryl = CC(C)CC(=O)*; Boc = CC(C)(C)OC(=O)*

Columns and labels:
hog renin = conditions: after the injection of hog renin into nephrectomized rats (Gross et al.); cited from earlier work
human plasma renin = molecular target: T1, human plasma renin (Homo sapiens, UniProt P00797); test: Human plasma renin assay; type: biochemical; conditions: read-out: Human Plasma I50
T1 construct: Further assays measured human plasma renin and dog plasma renin; from tissue; host or cells: human plasma
T1 sequence (P00797 67-406): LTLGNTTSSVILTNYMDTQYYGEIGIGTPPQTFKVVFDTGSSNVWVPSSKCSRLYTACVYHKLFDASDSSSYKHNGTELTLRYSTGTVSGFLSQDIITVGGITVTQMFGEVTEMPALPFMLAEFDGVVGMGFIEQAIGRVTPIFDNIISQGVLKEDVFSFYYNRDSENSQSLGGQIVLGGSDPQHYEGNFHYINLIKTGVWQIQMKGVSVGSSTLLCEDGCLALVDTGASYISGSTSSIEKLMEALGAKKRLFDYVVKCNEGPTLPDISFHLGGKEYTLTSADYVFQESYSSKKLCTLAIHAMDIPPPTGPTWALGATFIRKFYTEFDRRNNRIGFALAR
Procedure: (§1) Assays were carried out in order to determine the inhibitory potency of the peptides of the present invention. One assay measured the inhibition of hog kidney renin, and was in accordance with the procedure described in Rich et al., J. Med. Chem. 23: 27, 1980, except that a pH of 7.3 was used. Another assay measured the inhibition of human kidney renin purified as described in Bangham, D. R., Robertson, I., Robinson, J. I. S., Robinson, C. J., and Tree, M., Clinical Science and Molecular Medicine, 48 (Supp. 2): 136s-159s (1975), and further purified by affinity chromatography on pepstatin-aminohexyl-Sepharase as described in Poe, M., Wu., J. K., Florance, J. R., Radkey, J. A., Bennett, C. D., and Hoogsteen, K., J. Biol. Chem. 258: 2209-2216 (1983). The assay was also in accordance with Poe et al. cited above. Further assays measured human plasma renin and dog plasma renin in accordance with procedures described in Boger et al, Nature, 303: 81-84 (1983).

human kidney renin = molecular target: T2, human kidney renin (Homo sapiens, UniProt P00797); test: Inhibition of purified human kidney renin; type: biochemical; conditions: dissociation constant of the inhibited enzyme-inhibitor complex
T2 construct: human kidney renin purified as described in Bangham; from tissue; host or cells: human kidney
T2 sequence (P00797 67-406): T1 sequence (P00797 67-406)
Procedure: as §1
Results expressed as KI values refer to the dissociation constant of the inhibited enzyme-inhibitor complex. This KI value was obtained as described above. Pepstatin was used as an active control.

dog plasma renin = molecular target: T3, dog plasma renin (Canis lupus familiaris, UniProt Q6DYE7); test: Dog plasma renin assay; type: biochemical; conditions: read-out: Dog Plasma I50
T3 construct: Further assays measured human plasma renin and dog plasma renin; from tissue; host or cells: dog plasma
T3 sequence (Q6DYE7 66-403): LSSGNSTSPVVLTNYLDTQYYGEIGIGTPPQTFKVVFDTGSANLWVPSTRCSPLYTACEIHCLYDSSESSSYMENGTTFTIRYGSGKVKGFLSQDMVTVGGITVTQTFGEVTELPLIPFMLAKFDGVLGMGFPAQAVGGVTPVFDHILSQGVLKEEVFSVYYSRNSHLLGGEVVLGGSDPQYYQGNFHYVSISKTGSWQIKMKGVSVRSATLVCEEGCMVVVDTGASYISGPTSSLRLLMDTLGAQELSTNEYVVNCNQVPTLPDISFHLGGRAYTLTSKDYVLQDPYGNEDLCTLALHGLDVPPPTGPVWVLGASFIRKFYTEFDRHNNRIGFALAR
Procedure: as §1

IC50 (human plasma renin) [nM] | Ki (human kidney renin) [nM] | IC50 (dog plasma renin) [nM] | Compound | blood pressure in vivo (hog renin)
0.14 | 0.33 | 4.5 | CC(C)CC(=O)N[C@@H](Cc1c[nH]cn1)C(=O)N1CCC[C@H]1C(=O)N[C@@H](CCc1ccccc1)C(=O)N[C@@H](Cc1c[nH]cn1)C(=O)N[C@@H](CC(C)C)[C@@H](O)CC(=O)N[C@@H](CC(C)C)C(=O)N[C@@H](Cc1ccccc1)C(N)=O [N^α -Isovaleryl-L-Histidyl-L-Prolyl-L-Homophenylalanyl-L-Histidyl-(3S,4S)-Statyl-L-Leucyl-L-Phenylalanyl Amide] (Isovaleryl-HP[hPhe]H[Sta]LF-NH2) | 
3.9 | 1.17 | 100 | CC(C)C[C@H](NC(=O)C[C@H](O)[C@H](CC1CCCCC1)NC(=O)[C@H](Cc1c[nH]cn1)NC(=O)[C@H](CCc1ccccc1)NC(=O)OC(C)(C)C)C(N)=O [BOC--HomoPhe--His--ACHPA--Leu--NH2, BocHPhe--His--ACHPA--Leu--NH2] | 
4 | 0.39 | 16 | COC(=O)[C@H](Cc1ccccc1)NC(=O)[C@H](CC(C)C)NC(=O)C[C@H](O)[C@H](CC1CCCCC1)NC(=O)[C@H](Cc1c[nH]cn1)NC(=O)[C@H](CCc1ccccc1)NC(=O)OC(C)(C)C [BOC--HomoPhe--His--ACHPA--Leu--Phe--OCH3, BocHPhe--His--ACHPA--Leu--Phe--OCH3] (Boc-[hPhe]H[ACHPA]LF-OMe) | 

The remaining lines, values behind:

Compound | IC50 (human plasma renin) [nM] | Ki (human kidney renin) [nM] | IC50 (dog plasma renin) [nM] | blood pressure in vivo (hog renin)
pepstatin |  |  |  | reduce blood pressure
CC(C)CC(=O)N[C@@H](Cc1c[nH]cn1)C(=O)N1CCC[C@H]1C(=O)N[C@@H](CCCc1ccccc1)C(=O)N[C@@H](Cc1c[nH]cn1)C(=O)N[C@@H](CC(C)C)[C@@H](O)CC(=O)N[C@@H](CC(C)C)C(=O)N[C@@H](Cc1ccccc1)C(N)=O [N^α -Isovaleryl-L-Histidyl-L-Prolyl-L-Bishomophenylalanyl-L-Histidyl-(3S,4S)-Statyl-L-Leucyl-L-Phenylalanyl Amide] (Isovaleryl-HP[hhPhe]H[Sta]LF-NH2) |  | 90 | 320 | 
COC(=O)[C@H](CC(C)C)NC(=O)C[C@H](O)[C@H](CC1CCCCC1)NC(=O)[C@H](Cc1c[nH]cn1)NC(=O)[C@H](CCc1ccccc1)NC(=O)OC(C)(C)C [BOC--HomoPhe--His--ACHPA--Leu--OCH3, BocHPhe--His--ACHPA--Leu--OCH3] |  | 0.98 |  | 
